Data reported in ChEMBL document CHEMBL3885861, “Open TG-GATES”.

Organism: Rattus norvegicus
Experiment: Open TG-GATES - Regimen: Single
Type: toxicity, organism-based, Sprague-Dawley
Set-up: regimen Single, gender Male, age 6 weeks
Details: in vivo, po, 30 mg/kg, route gavage, dose level High; for APTT / Bas / Eos / Fbg / Hb / Ht / Lym / MCH / MCHC / Mono / Neu / Plat / RBC / Ret / WBC: tissue Blood; for KIDNEY_L / KIDNEY_R / KIDNEY_TOTAL: tissue Kidney; for LIVER: tissue Liver; for ALP / ALT / AST / BUN / CRE / Ca / Cl / DBIL / GLC / IP / K / LDH / Na / PL / RALB / TBIL / TC / TG / TP / gamma-GTP: tissue Plasma

O=C(CCCN1CCC(O)(c2ccc(Cl)cc2)CC1)c1ccc(F)cc1 [HALOPERIDOL]
TERMINAL_BW (3 h): 205 g | APTT (3 h): 17.2 s | Bas (3 h): 0% | Eos (3 h): 0.2% | Fbg (3 h): 207.6 mg/dL | Hb (3 h): 12.8 g/dL | Ht (3 h): 38.4% | Lym (3 h): 70.4% | MCH (3 h): 21.5 pg | MCHC (3 h): 33.3% | Mono (3 h): 6% | Neu (3 h): 23.4% | Plat (3 h): 97 x10_4/uL | RBC (3 h): 593.6 x10_4/ul | Ret (3 h): 8.9% | WBC (3 h): 57.7 x10_2/uL | KIDNEY_L (3 h): 0.9 g | KIDNEY_R (3 h): 0.9 g | KIDNEY_TOTAL (3 h): 1.9 g | LIVER (3 h): 9.5 g | ALP (3 h): 676.8 IU/L | ALT (3 h): 31.4 IU/L | AST (3 h): 52 IU/L | BUN (3 h): 12.2 mg/dL | CRE (3 h): 0.5 mg/dL | Ca (3 h): 10.7 mg/dL | Cl (3 h): 108.8 meq/L | DBIL (3 h): 0.018 mg/dL | GLC (3 h): 222.8 mg/dL | IP (3 h): 10.5 mg/dL | K (3 h): 4.4 meq/L | LDH (3 h): 166.8 IU/L | Na (3 h): 140.8 meq/L | PL (3 h): 157.6 mg/dL | RALB (3 h): 3.7 g/dL | TBIL (3 h): 0.3 mg/dL | TC (3 h): 92.2 mg/dL | TG (3 h): 34.6 mg/dL | TP (3 h): 5.6 g/dL | gamma-GTP (3 h): 1.4 IU/L | TERMINAL_BW (6 h): 194.4 g | APTT (6 h): 17.2 s | Bas (6 h): 0% | Eos (6 h): 0.4% | Fbg (6 h): 198.5 mg/dL | Hb (6 h): 13.9 g/dL | Ht (6 h): 41.3% | Lym (6 h): 72.6% | MCH (6 h): 21.4 pg | MCHC (6 h): 33.7% | Mono (6 h): 4.4% | Neu (6 h): 22.6% | Plat (6 h): 110.6 x10_4/uL | RBC (6 h): 647.2 x10_4/ul | Ret (6 h): 9.3% | WBC (6 h): 75.5 x10_2/uL | KIDNEY_L (6 h): 0.9 g | KIDNEY_R (6 h): 0.9 g | KIDNEY_TOTAL (6 h): 1.8 g | LIVER (6 h): 8.9 g | ALP (6 h): 742.6 IU/L | ALT (6 h): 30.6 IU/L | AST (6 h): 59.8 IU/L | BUN (6 h): 9.2 mg/dL | CRE (6 h): 0.5 mg/dL | Ca (6 h): 10.1 mg/dL | Cl (6 h): 108.2 meq/L | DBIL (6 h): 0.036 mg/dL | GLC (6 h): 215.6 mg/dL | IP (6 h): 10.1 mg/dL | K (6 h): 4.6 meq/L | LDH (6 h): 179.8 IU/L | Na (6 h): 140 meq/L | PL (6 h): 133.6 mg/dL | RALB (6 h): 3.6 g/dL | TBIL (6 h): 0.3 mg/dL | TC (6 h): 77.8 mg/dL | TG (6 h): 20 mg/dL | TP (6 h): 5.5 g/dL | gamma-GTP (6 h): 1.2 IU/L | TERMINAL_BW (9 h): 194.2 g | APTT (9 h): 16.9 s | Bas (9 h): 0% | Eos (9 h): 1.4% | Fbg (9 h): 216 mg/dL | Hb (9 h): 13.6 g/dL | Ht (9 h): 40.7% | Lym (9 h): 69% | MCH (9 h): 21.9 pg | MCHC (9 h): 33.4% | Mono (9 h): 5.6% | Neu (9 h): 24% | Plat (9 h): 104 x10_4/uL | RBC (9 h): 623 x10_4/ul | Ret (9 h): 8.6% | WBC (9 h): 59.3 x10_2/uL | KIDNEY_L (9 h): 0.9 g | KIDNEY_R (9 h): 0.9 g | KIDNEY_TOTAL (9 h): 1.8 g | LIVER (9 h): 8.3 g | ALP (9 h): 898.8 IU/L | ALT (9 h): 26.8 IU/L | AST (9 h): 53.2 IU/L | BUN (9 h): 10.8 mg/dL | CRE (9 h): 0.5 mg/dL | Ca (9 h): 9.9 mg/dL | Cl (9 h): 108.8 meq/L | DBIL (9 h): 0.012 mg/dL | GLC (9 h): 201.2 mg/dL | IP (9 h): 10.8 mg/dL | K (9 h): 4.8 meq/L | LDH (9 h): 180.8 IU/L | Na (9 h): 140.6 meq/L | PL (9 h): 137.2 mg/dL | RALB (9 h): 3.9 g/dL | TBIL (9 h): 0.3 mg/dL | TC (9 h): 75.8 mg/dL | TG (9 h): 21.4 mg/dL | TP (9 h): 5.6 g/dL | gamma-GTP (9 h): 1.2 IU/L | TERMINAL_BW (24 h): 194.5 g | APTT (24 h): 15.2 s | Bas (24 h): 0% | Eos (24 h): 0.6% | Fbg (24 h): 200.2 mg/dL | Hb (24 h): 14.5 g/dL | Ht (24 h): 43.1% | Lym (24 h): 80.8% | MCH (24 h): 21.4 pg | MCHC (24 h): 33.7% | Mono (24 h): 5.8% | Neu (24 h): 12.8% | Plat (24 h): 118.2 x10_4/uL | RBC (24 h): 680 x10_4/ul | Ret (24 h): 7.7% | WBC (24 h): 59.7 x10_2/uL | KIDNEY_L (24 h): 0.9 g | KIDNEY_R (24 h): 0.9 g | KIDNEY_TOTAL (24 h): 1.8 g | LIVER (24 h): 8.9 g | ALP (24 h): 744.8 IU/L | ALT (24 h): 30.2 IU/L | AST (24 h): 67.8 IU/L | BUN (24 h): 28.6 mg/dL | CRE (24 h): 0.5 mg/dL | Ca (24 h): 11 mg/dL | Cl (24 h): 105 meq/L | DBIL (24 h): 0.044 mg/dL | GLC (24 h): 181 mg/dL | IP (24 h): 9.7 mg/dL | K (24 h): 5.3 meq/L | LDH (24 h): 216.4 IU/L | Na (24 h): 140 meq/L | PL (24 h): 142.8 mg/dL | RALB (24 h): 4.1 g/dL | TBIL (24 h): 0.4 mg/dL | TC (24 h): 77 mg/dL | TG (24 h): 95 mg/dL | TP (24 h): 6.1 g/dL | gamma-GTP (24 h): 1 IU/L
